US8394848B2, “Compounds that modulate intracellular calcium” (Calcimedica, Inc., priority 2008, dated 2013)

Each compound was assayed on JR251 or RBL cells (assay: Store-operated calcium entry, either JR251 or RBL cells, or both).
Type: cell-based
Description: The day prior to performing the assay, RBL-2H3 cells are plated in 50 μL of complete medium in a 384 well plate. Cells are grown at 37° C./6% CO2 overnight and grow to 50-60% confluence by the next day. On the assay day, 1.5 μM Fluo-4-AM dye (Invitrogen) in complete medium is added and incubated for 1 hour at RT. Cells are washed twice in Ca^2+-free HBSS buffer and 35 μL Ca^2+-free HBSS buffer is added to each well. 10 μL of a test compound prepared in a Ca^2+-free HBSS solution at 4.5× of the desired concentration is added to a well and incubated for 5 minutes at RT. 10 μL of thapsigargin prepared in a Ca^2+-free HBSS solution at 5.5× of the desired concentration (5.5 uM) is added to each well and incubated for an additional 25 minutes. The initial baseline fluorescence signal is measured with a FLIPR^384 (Molecular Devices) plate reader. 5 μL of 12× calcium in HBSS (12 mM) is added and changes in cellular fluorescence are measured with the FLIPR^384 plate reader. In each well, the change in the fluorescent signal as a function of time due to calcium entry into the cell is determined by calculating the difference between the fluorescent signal measured 7 seconds after calcium addition and the initial baseline fluorescence signal at time zero (t=0). This parameter is designated Upslope. The IC50 value is calculated as the concentration at which 50% of the Upslope is inhibited.

IC50, < 10 µM:
Cc1ccc(-c2csc(NC(=O)c3nc4ccccc4o3)c2C(=O)O)c(Cl)c1 [2-(benzo[d]oxazole-2-carboxamido)-4-(2-chloro-4-methylphenyl)thiophene-3-carboxylic acid]
O=C(Nc1scc(-c2ccc(Cl)cc2)c1C(=O)O)c1ccsc1 [4-(4-chlorophenyl)-2-(thiophene-3-carboxamido)thiophene-3-carboxylic acid]
O=C(CCCc1ccccc1)Nc1scc(-c2ccc(Cl)cc2)c1C(=O)O [4-(4-chlorophenyl)-2-(4-phenylbutanamido)thiophene-3-carboxylic acid]
O=C(Nc1scc(-c2ccc(Cl)cc2)c1C(=O)O)c1ccco1 [4-(4-chlorophenyl)-2-(furan-2-carboxamido)thiophene-3-carboxylic acid]
CC(Cc1ccccc1)C(=O)Nc1scc(-c2ccc(Br)cc2)c1C(=O)O (centres unmarked) [4-(4-bromophenyl)-2-(2-methyl-3-phenylpropanamido)thiophene-3-carboxylic acid]
O=C(CCCCc1ccccc1)Nc1scc(-c2ccc(Cl)cc2)c1C(=O)O [4-(4-chlorophenyl)-2-(5-phenylpentanamido)thiophene-3-carboxylic acid]
O=C(Nc1scc(-c2cc3cccc(O)c3o2)c1C(=O)O)c1cc2ccccn2n1 [4-(7-hydroxybenzofuran-2-yl)-2-(pyrazolo[1,5-a]pyridine-2-carboxamido)thiophene-3-carboxylic acid]
O=C(Nc1scc(-c2ccc(Cl)cc2)c1C(=O)O)c1ccc2ncoc2c1 [2-(benzo[d]oxazole-6-carboxamido)-4-(4-chlorophenyl)thiophene-3-carboxylic acid]
O=C(Nc1scc(-c2ccc(Br)cc2)c1C(=O)O)c1ccnnc1 [4-(4-bromophenyl)-2-(pyridazine-4-carboxamido)thiophene-3-carboxylic acid]
O=C(O)c1c(-c2ccc(Cl)cc2)csc1NC(=O)C1CCc2ccccc2C1 (centres unmarked) [4-(4-chlorophenyl)-2-(1,2,3,4-tetrahydronaphthalene-2-carboxamido)thiophene-3-carboxylic acid]
Cc1ccc(-c2csc(NC(=O)/C=C/c3ccco3)c2C(=O)O)cc1 [(E)-2-(3-(furan-2-yl)acrylamido)-4-p-tolylthiophene-3-carboxylic acid]
CC(C)(C)C(Cc1ccccc1)C(=O)Nc1scc(-c2ccc(Cl)cc2)c1C(=O)O (centres unmarked) [2-(2-benzyl-3,3-dimethylbutanamido)-4-(4-chlorophenyl)thiophene-3-carboxylic acid]
Cc1ccc(-c2csc(NC(=O)c3nc4cc(F)c(F)cc4o3)c2C(=O)O)c(F)c1F [4-(2,3-difluoro-4-methylphenyl)-2-(5,6-difluorobenzo[d]oxazole-2-carboxamido)thiophene-3-carboxylic acid]
O=C(CCc1ccc(F)cc1)Nc1scc(-c2ccc(Br)cc2)c1C(=O)O [4-(4-bromophenyl)-2-(3-(4-fluorophenyl)propanamido)thiophene-3-carboxylic acid]
Cc1cccc(C)c1CCC(=O)Nc1scc(-c2ccc(Br)cc2)c1C(=O)O [4-(4-bromophenyl)-2-(3-(2,6-dimethylphenyl)propanamido)thiophene-3-carboxylic acid]
O=C(Nc1scc(-c2ccc(Cl)c(F)c2)c1C(=O)O)c1nc2c(F)cccc2o1 [4-(4-chloro-3-fluorophenyl)-2-(4-fluorobenzo[d]oxazole-2-carboxamido)thiophene-3-carboxylic acid]
O=C(O)c1c(-c2ccc(Cl)cc2)csc1NC(=O)C1Cc2ccccc2S1 (centres unmarked) [4-(4-chlorophenyl)-2-(2,3-dihydrobenzo[b]thiophene-2-carboxamido)thiophene-3-carboxylic acid]
